Legend:
NCI-H446 cell line = assay: Cell viability assay for NCI-H446 cell line; format: cell-based; details: Homo sapiens, NCI-H446, 120 h; H446 cells, 5 days culture, EZ-Cytox; read-out: IC50 value (Level)
Method in brief: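 Viability was measured by absorbance at 450 nm after 4 h with EZ-Cytox, following 5-day exposure of NCI-H446 cells (RPMI 1640, 10% FBS, 37 °C, 5% CO2) to 3-fold serial dilutions from 1000 nM down to 0.15 nM, added 24 h post-seeding.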

Aurora kinase A (AURKA) = target: T1, Aurora kinase A (AURKA) (Homo sapiens, UniProt O14965); assay: Luciferase assay for AURKA in HeLa LgBit (AURKA-HiBit KI) cell line; format: cell-based; details: HeLa LgBit (AURKA-HiBit KI) cells, measured after 12 hours
T1 construct: endogenous in cells; host or cells: HeLa LgBit (AURKA-HiBit KI), CRISPR/Cas9 knock-in at the endogenous AURKA locus
T1 sequence (O14965 1-403): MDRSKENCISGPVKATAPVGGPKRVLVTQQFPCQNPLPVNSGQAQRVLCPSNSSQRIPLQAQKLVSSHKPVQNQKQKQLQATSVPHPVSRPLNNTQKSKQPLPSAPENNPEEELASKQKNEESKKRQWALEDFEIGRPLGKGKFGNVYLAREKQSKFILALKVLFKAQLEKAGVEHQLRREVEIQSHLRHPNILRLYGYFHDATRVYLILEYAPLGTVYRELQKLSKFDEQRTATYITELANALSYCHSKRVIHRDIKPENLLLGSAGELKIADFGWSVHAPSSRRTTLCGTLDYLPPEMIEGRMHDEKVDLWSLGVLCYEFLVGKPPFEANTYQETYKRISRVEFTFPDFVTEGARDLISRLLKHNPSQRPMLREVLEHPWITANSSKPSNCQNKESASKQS
Method in brief: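 Test compounds (10 nM or 100 nM) added to AURKA-HiBit knock-in HeLa LgBit cells that had been pre-loaded with Endurazine for 2 h following an 18 h culture at 3×10^4 cells. Endogenous AURKA-HiBit level followed by luminescence (470-480 nm), measured after 12 h.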

| Structure (SMILES) | luminescence value (Level) (Aurora kinase A (AURKA); 10 nM compound) | luminescence value (Level) (Aurora kinase A (AURKA); 100 nM compound) | IC50 (NCI-H446 cell line) [nM] |
| --- | --- | --- | --- |
| Cn1c(=O)n(C2CCC(=O)NC2=O)c2ccc(N3CCN(CCC4CCN(NC(=O)c5ccc(Nc6ncc(F)c(Nc7ccc(C(=O)Nc8ccccc8Cl)cc7)n6)cc5)CC4)CC3)cc21 (stereo not drawn) [Compound 106, N-(2-chlorophenyl)-4-((2-((4-((4-(2-(4-(1-(2,6-dioxopiperidin-3-yl)-3-methyl-2-oxo-2,3-dihydro-1H-benzo[d]imidazol-5-yl)piperazin-1-yl)ethyl)piperidin-1-yl)carbamoyl)phenyl)amino)-5-fluoropyrimidin-4-yl)amino)benzamide] | A (A is <0.3) | A (A is <0.2) | 100 to 150 |
| O=C1CC[C@@H](Nc2ccc(N3CCN(CCC4CCN(NC(=O)c5ccc(Nc6ncc(F)c(Nc7ccc(C(=O)Nc8ccccc8Cl)cc7)n6)cc5)CC4)CC3)c(F)c2)C(=O)N1 [Compound 108, (R)—N-(2-chlorophenyl)-4-((2-((4-((4-(2-(4-(4-((2,6-dioxopiperidin-3-yl)amino)-2-fluorophenyl)piperazin-1-yl)ethyl)piperidin-1-yl)carbamoyl)phenyl)amino)-5-fluoropyrimidin-4-yl)amino)benzamide] | A (A is <0.3) | A (A is <0.2) | < 50 |
| O=C1CCC(Nc2cc(F)c(N3CCN(CCC4CCN(NC(=O)c5ccc(Nc6ncc(F)c(Nc7ccc(NC(=O)c8ccccc8F)cc7)n6)cc5F)CC4)CC3)cc2F)C(=O)N1 (stereo not drawn) [Compound 109, N-(4-(2-(4-(4-((2,6-dioxopiperidin-3-yl)amino)-2,5-difluorophenyl)piperazin-1-yl)ethyl)piperidin-1-yl)-2-fluoro-4-((5-fluoro-4-((4-(2-fluorobenzamido)phenyl)amino)pyrimidin-2-yl)amino)benzamide] | B (B is 0.3 to 0.5) | A (A is <0.2) | 50 to 100 |
| O=C1CC[C@@H](Nc2ccc(N3CCN(CCC4CCN(NC(=O)c5ccc(Nc6ncc(F)c(Nc7ccc(C(=O)Nc8ccccc8Cl)cc7)n6)cc5)CC4)CC3)cc2F)C(=O)N1 [Compound 111, (R)—N-(2-chlorophenyl)-4-((2-((4-((4-(2-(4-(4-((2,6-dioxopiperidin-3-yl)amino)-3-fluorophenyl)piperazin-1-yl)ethyl)piperidin-1-yl)carbamoyl)phenyl)amino)-5-fluoropyrimidin-4-yl)amino)benzamide] | A (A is <0.3) | A (A is <0.2) | < 50 |
| O=C1CCC(c2cc(F)c(N3CCN(CCC4CCN(NC(=O)c5ccc(Nc6ncc(F)c(Nc7ccc(NC(=O)c8ccccc8F)cc7)n6)cc5F)CC4)CC3)cc2F)C(=O)N1 (stereo not drawn) [Compound 112, N-[4-[2-[4-[4-(2,6-dioxo-3-piperidyl)-2,5-difluoro-phenyl]piperazin-1-yl]ethyl]-1-piperidyl]-2-fluoro-4-[[5-fluoro-4-[4-[(2-fluorobenzoyl)amino]anilino]pyrimidin-2-yl]amino]benzamide] | A (A is <0.3) | A (A is <0.2) | < 50 |
| COc1cc(N2CCN(CCC3CCN(NC(=O)c4ccc(Nc5ncc(F)c(Nc6ccc(C(=O)Nc7ccccc7Cl)cc6)n5)cc4)CC3)CC2)c(F)cc1NC1CCC(=O)NC1=O (stereo not drawn) [Compound 117, N-(2-chlorophenyl)-4-((2-((4-((4-(2-(4-(4-((2,6-dioxopiperidin-3-yl)amino)-2-fluoro-5-methoxyphenyl)piperazin-1-yl)ethyl)piperidin-1-yl)carbamoyl)phenyl)amino)-5-fluoropyrimidin-4-yl)amino)benzamide] | A (A is <0.3) | A (A is <0.2) | < 50 |
| COc1cc(N2CCN(CCC3CCN(NC(=O)c4ccc(Nc5ncc(F)c(Nc6ccc(C(=O)Nc7ccccc7Cl)cc6)n5)cc4)CC3)CC2)c(F)cc1C1CCC(=O)NC1=O (stereo not drawn) [Compound 118, N-(2-chlorophenyl)-4-((2-((4-((4-(2-(4-(4-(2,6-dioxopiperidin-3-yl)-2-fluoro-5-methoxyphenyl)piperazin-1-yl)ethyl)piperidin-1-yl)carbamoyl)phenyl)amino)-5-fluoropyrimidin-4-yl)amino)benzamide] | B (B is 0.3 to 0.5) | A (A is <0.2) | 50 to 100 |

Now from value to molecule, other results behind:

| luminescence value (Level) (Aurora kinase A (AURKA); 10 nM compound) | luminescence value (Level) (Aurora kinase A (AURKA); 100 nM compound) | Structure (SMILES) | IC50 (NCI-H446 cell line) [nM] |
| --- | --- | --- | --- |
| B (B is 0.3 to 0.5) | A (A is <0.2) | O=C1CCC(c2ccc(N3CCN(CCC4CCN(NC(=O)c5ccc(Nc6ncc(F)c(Nc7ccc(C(=O)Nc8ccccc8)cc7)n6)cc5)CC4)CC3)cc2)C(=O)N1 (stereo not drawn) [Compound 103, 4-[[2-[4-[[4-[2-[4-[4-(2,6-dioxo-3-piperidyl)phenyl]piperazin-1-yl]ethyl]-1-piperidyl]carbamoyl]anilino]-5-fluoro-pyrimidin-4-yl]amino]-N-phenyl-benzamide] | 50 to 100 |
| A (A is <0.3) | A (A is <0.2) | O=C1CCC(c2ccc(N3CCN(CCC4CCN(NC(=O)c5ccc(Nc6ncc(F)c(Nc7ccc(NC(=O)c8ccccc8F)cc7)n6)cc5)CC4)CC3)cc2)C(=O)N1 (stereo not drawn) [Compound 104, N-[4-[[2-[4-[[4-[2-[4-[4-(2,6-dioxo-3-piperidyl)phenyl]piperazin-1-yl]ethyl]-1-piperidyl]carbamoyl]anilino]-5-fluoro-pyrimidin-4-yl]amino]phenyl]-2-fluoro-benzamide] | < 50 |
| C (C is 0.5 to 0.7) | B (B is 0.2 to 0.4) | O=C1CCC(c2ccc(N3CCN(CCC4CCN(C(=O)c5ccc(Nc6ncc(F)c(Nc7ccc(C(=O)Nc8ccccc8Cl)cc7)n6)cc5)CC4)CC3)cc2)C(=O)N1 (stereo not drawn) [Compound 110, N-(2-chlorophenyl)-4-[[2-[4-[4-[2-[4-[4-(2,6-dioxo-3-piperidyl)phenyl]piperazin-1-yl]ethyl]piperidine-1-carbonyl]anilino]-5-fluoro-pyrimidin-4-yl]amino]benzamide] | 150 to 200 |
| A (A is <0.3) | A (A is <0.2) | C[C@H]1CN(c2ccc(C3CCC(=O)NC3=O)cc2)CCN1CCC1CCN(NC(=O)c2ccc(Nc3ncc(F)c(Nc4ccc(C(=O)Nc5ccccc5Cl)cc4)n3)cc2)CC1 (stereo partly drawn) [Compound 113, N-(2-chlorophenyl)-4-((2-((4-((4-(2-((2S)-4-(4-(2,6-dioxopiperidin-3-yl)phenyl)-2-methylpiperazin-1-yl)ethyl)piperidin-1-yl)carbamoyl)phenyl)amino)-5-fluoropyrimidin-4-yl)amino)benzamide] | < 50 |
| A (A is <0.3) | A (A is <0.2) | C[C@H]1CN(CCC2CCN(NC(=O)c3ccc(Nc4ncc(F)c(Nc5ccc(C(=O)Nc6ccccc6Cl)cc5)n4)cc3)CC2)CCN1c1ccc(C2CCC(=O)NC2=O)cc1 (stereo partly drawn) [Compound 114, N-(2-chlorophenyl)-4-((2-((4-((4-(2-((3S)-4-(4-(2,6-dioxopiperidin-3-yl)phenyl)-3-methylpiperazin-1-yl)ethyl)piperidin-1-yl)carbamoyl)phenyl)amino)-5-fluoropyrimidin-4-yl)amino)benzamide] | < 50 |
| A (A is <0.3) | A (A is <0.2) | C[C@@H]1CN(CCC2CCN(NC(=O)c3ccc(Nc4ncc(F)c(Nc5ccc(C(=O)Nc6ccccc6Cl)cc5)n4)cc3)CC2)CCN1c1ccc(C2CCC(=O)NC2=O)cc1 (stereo partly drawn) [Compound 116, N-(2-chlorophenyl)-4-((2-((4-((4-(2-((3R)-4-(4-(2,6-dioxopiperidin-3-yl)phenyl)-3-methylpiperazin-1-yl)ethyl)piperidin-1-yl)carbamoyl)phenyl)amino)-5-fluoropyrimidin-4-yl)amino)benzamide] | < 50 |

From patent US20260226071A1, “2, 4-DIANILINOPYRIMIDINE-BASED AURORA-A KINASE SELECTIVE DEGRADATION INDUCING COMPOUNDS” (UPPTHERA, INC., priority 2023, published 2026)
